{"source": "patent US20230108004A1", "about": "“TREATMENT OF EPILEPSY WITH PLINABULIN OR HALIMIDE OR DIKETOPIPERAZINE DERIVATIVES” (Katholieke Universiteit Leuven, priority 2017, published 2023)", "key": {"[1]": {"test_system": "PTZ-induced seizure behavior in zebrafish larvae", "assay": "Zebrafish pentylenetetrazole (PTZ) seizure model, behavioral analysis", "assay_type": "in vivo, zebrafish (Danio rerio)", "conditions": "2 hours incubation; for antiseizure activity of the separated enantiomers: S-enantiomer only significant at 200 μg/mL (p<0.01)", "method": "Experiments were performed as described in Copmans et al. (2018) Neurochem. Int. 112, 124-133; Afrikanova et al (2013) PLoS One 8, e54166 and Orellana-Paucar et al. (2012) Epilepsy Behav 24, 14-22. In brief, a single 7 dpf larva was placed in each well of a 96-well plate and treated with either VHC (1% DMSO) or test compound (1% DMSO) in a 100 μL volume. Larvae were incubated in dark for 2 hours at 28° C., whereafter 100 μL of either VHC (embryo medium) or 40 mM PTZ (20 mM working concentration) was added to each well. Next, within 5 minutes the 96-well plate was placed in an automated tracking device (ZebraBox Viewpoint, France) and larval behavior was video recorded for 30 minutes. The complete procedure was performed in dark conditions using infrared light. Total locomotor activity was recorded by ZebraLab software (Viewpoint, France) and expressed in actinteg units, which is the sum of pixel changes detected during the defined time interval (5 minutes). Larval behavior was depicted as mean actinteg units per 5 minutes during the 30 minute recording period and over consecutive time intervals. Data are expressed as mean±SD for single experiments with regards to screening and as mean±SEM for single experiments and for independent experiments of which the means or data are pooled.\nIn the first secondary screen three replicate wells were used per sample (100 μg/mL) tested and each experimental plate contained 12 internal control wells. In the second secondary screen six replicate wells were used per sample and concentration tested (100, 33, and 11 μg/mL), again 12 internal control wells were used per experimental plate."}, "[2]": {"test_system": "PTZ-induced epileptiform discharges in zebrafish larvae", "assay": "Zebrafish PTZ seizure model, electrophysiology (local field potential recordings from the optic tectum)", "assay_type": "in vivo, zebrafish (Danio rerio)", "conditions": "2 hours, 10 min recording", "method": "Non-invasive LFP recordings were measured from the midbrain (optic tectum) of 7 dpf zebrafish larvae pre-incubated with VHC only, PTZ only, compound and VHC, or compound and PTZ [Zdebik, et al. (2013) PLoS One 8, 6e10. Experiments were performed as described in Copmans, et al. (2018) Neurochem. Int. 112, 124-133 and Copmans et al. (2018) ACS chemical neuroscience.]. In brief, larvae were incubated for approximately 2 hours with VHC (1% DMSO) or test compound (1% DMSO) in a 100 μL volume. After incubation, an equal volume of VHC (embryo medium) or 40 mM PTZ (20 mM working concentration) was added to the well for 15 minutes prior to recording. These steps occurred at 28° C., while further manipulation and electrophysiological recordings occurred at room temperature (±21° C.). The larva was embedded in 2% low melting point agarose (Invitrogen) and the signal electrode (an electrode inside a soda-glass pipet (1412227, Hilgenberg) pulled with a DMZ Universal Puller (Zeitz, Germany), diameter±20 microns, containing artificial cerebrospinal fluid (ACSF: 124 mM NaCl, 10 mM glucose, 2 mM KCl, 2 mM MgSO4, 2 mM CaCl2), 1.25 mM KH2PO4, and 26 mM NaHCO3, 300-310 mOsmols)) was positioned on the skin covering the optic tectum. A differential extracellular amplifier (DAGAN, USA) amplified the voltage difference between the signal (measured by the signal electrode) and the reference electrode. The differential signal was band pass filtered at 0.3-300 Hz and digitized at 2 kHz via a PCI-6251 interface (National instruments, UK) using WinEDR (John Dempster, University of Strathclyde, UK). A grounding electrode grounded the electrical system. All electrodes were connected with ACSF. Each recording lasted 600 seconds. Manual analysis was completed by quantification of the number, cumulative duration, and mean duration of epileptiform-like events with Clampfit 10.2 software (Molecular Devices Corporation, USA). An electrical discharge was considered epileptiform if it was a poly-spiking event comprising at least 3 spikes with a minimum amplitude of three times the baseline amplitude and a duration of at least 100 milliseconds. Data are expressed as mean±SD."}, "[3]": {"test_system": "EKP-induced seizure behavior in zebrafish larvae", "assay": "Zebrafish ethyl ketopentenoate (EKP) seizure model, behavioral analysis", "assay_type": "in vivo, zebrafish (Danio rerio)", "method": "Experiments were performed as described in Zhang et al. (2017) Sci. Rep. 7, 7195. In brief, a single 7 dpf larva was placed in each well of a 96-well plate and treated with either VHC (1% DMSO) or test compound (1% DMSO) in a 100 μL volume. Larvae were incubated in dark for 2 hours at 28° C., whereafter 100 μL of either VHC (1% DMSO) or 1 mM EKP (1% DMSO, 500 μM working concentration) was added to each well. Next, within 5 minutes the 96-well plate was placed in an automated tracking device (ZebraBox Viewpoint, France) and larval behavior was video recorded for 30 minutes. The complete procedure was performed in dark conditions using infrared light. Total locomotor activity was recorded by ZebraLab software (Viewpoint, France) and expressed in actinteg units, which is the sum of pixel changes detected during the defined time interval (5 minutes). Larval behavior was depicted as mean actinteg units per 5 minutes during the 30 minute recording period and over consecutive time intervals. Data are pooled from independent experiments and expressed as mean±SEM."}, "[4]": {"test_system": "EKP-induced epileptiform discharges in zebrafish larvae", "assay": "Zebrafish EKP seizure model, electrophysiology (local field potential recordings)", "assay_type": "in vivo, zebrafish (Danio rerio)", "conditions": "12.5 μg/mL, 2 hours; 10 min recording; p≤0.05", "method": "Non-invasive LFP recordings were measured from the midbrain (optic tectum) of 7 dpf zebrafish larvae pre-incubated with VHC only, EKP only, compound and VHC, or compound and EKP. Larvae were incubated for approximately 2 hours with VHC (1% DMSO) or test compound (1% DMSO). After incubation, VHC (1% DMSO) or 1 mM EKP (1% DMSO, 500 μM working concentration) was added to the well for 15 minutes prior to recording. These steps occurred at 28° C., while further manipulation and electrophysiological recordings occurred at room temperature (±21° C.). The larva was embedded in 2% low melting point agarose (Invitrogen) and the signal electrode was positioned on the skin covering the optic tectum and electrophysiological recordings (room temperature) were performed as described above for the zebrafish PTZ seizure model and as described in Zhang et al. (2017) Sci. Rep. 7, 7195. Manual analysis was completed by quantification of the number, cumulative duration, and mean duration of epileptiform-like events with Clampfit 10.2 software (Molecular Devices Corporation, USA). An electrical discharge was considered epileptiform if it was a poly-spiking event comprising at least 3 spikes with a minimum amplitude of three times the baseline amplitude and a duration of at least 100 milliseconds. Data are expressed as mean±SD."}, "[5]": {"test_system": "drug-resistant psychomotor seizures induced by corneal electrical stimulation", "assay": "Mouse 6-Hz (44 mA) psychomotor seizure model", "assay_type": "in vivo, Male NMRI mice", "conditions": "30 min before stimulation, VHC 28 s", "method": "Experiments were performed as previously described. In brief, NMRI mice (average weight 32 g, range 28-36 g) were randomly divided into control and treatment groups (n=6-11). 50 μL (injection volume was adjusted to the individual weight) of VHC (PEG200:DMSO 1:1) or treatment (an ASD or test compound dissolved in VHC) was i.p. injected in mice and after 30 minutes psychomotor seizures were induced by low frequency, long duration corneal electrical stimulation (6 Hz, 0.2 ms rectangular pulse width, 3 s duration, 44 mA) using an ECT Unit 5780 (Ugo Basile, Comerio, Italy). Mice were manually restrained and a drop of ocular anesthetic (0.5% lidocaine) was applied to the corneas before stimulation. Following electrical current stimulation, the mouse was released in a transparent cage for behavioral observation, which was video-recorded. […] In addition, facial and mouth jerking as well as head nodding were observed occasionally. Seizure durations were measured during the experiment by experienced researchers, familiar with the different seizure behaviors. In addition, seizure durations were determined by blinded video analysis to confirm or correct the initial observations. Data are expressed as mean±SD."}, "zebrafish larvae": {"test_system": "zebrafish larvae", "assay": "Zebrafish toxicity evaluation: maximum tolerated concentration (MTC)", "assay_type": "in vivo, zebrafish (Danio rerio)", "conditions": "highest concentration without death, toxicity or locomotor impairment", "method": "Maximum tolerated concentration (MTC) was determined prior to further experiments and used as the highest test concentration. Experiments were performed as described in Copmans et al. (2018) Neurochem. Int. 112, 124-133. before. In brief, the MTC was investigated by exposing 12 larvae of 6 or 7 dpf to a range of concentrations in a 100 μL volume during 18 hours. The following parameters were investigated after 2 and 18 hours of exposure: touch response, morphology, posture, edema, signs of necrosis, swim bladder, and heartbeat. […] In case no MTC was reached, the highest soluble concentration was used.\nMaximum tolerated concentration (MTC) was determined prior to further experiments and used as the highest test concentration. Experiments were performed as described in Copmans et al. (2018). Neurochem. Int. 112, 124-133. In brief, the MTC was investigated by exposing 12 larvae of 7 dpf to a range of concentrations in a 100 μL volume during 18 hours. The following parameters were investigated after 2 and 18 hours of exposure: touch response, morphology, posture, edema, signs of necrosis, swim bladder, and heartbeat."}}}
{"smiles": "C=CC(C)(C)c1nc[nH]c1/C=C1\\NC(=O)C(Cc2ccccc2)NC1=O", "note": "(single isomer, unassigned) [S-enantiomer]", "values": [{"measurement": "antiseizure activity of the separated enantiomers", "setting": "[1]", "result": "active"}]}
{"smiles": "C=CC(C)(C)c1[nH]cnc1C=C1NC(=O)C(Cc2ccccc2)NC1=O", "note": "(single isomer, unassigned) [R-enantiomer]", "values": [{"measurement": "antiseizure activity of the separated enantiomers", "setting": "[1]", "result": "no significant effect"}]}
{"smiles": "CC(C)(C)c1[nH]cnc1/C=c1\\[nH]c(=O)/c(=C/c2ccccc2)[nH]c1=O", "note": "[plinabulin]", "values": [{"measurement": "PTZ-induced seizure behavior", "setting": "[1]; 1.56-12.5 μg/mL, 30 min recording, p≤0.01 (1.56), p≤0.001 (3.13, 6.25, 12.5) (FIG. 7A)", "result": "significantly lowered"}, {"measurement": "PTZ-induced seizure behavior", "setting": "[1]; 12.5 and 3.13 μg/mL, 30 min recording period, p≤0.001 (FIG. 4C)", "result": "significantly lowered"}, {"measurement": "number of PTZ-induced epileptiform events", "setting": "[2]; 12.5 μg/mL", "result": "non-significantly lowered"}, {"measurement": "percentage of larvae with PTZ-induced epileptiform activity", "setting": "[2]; 12.5 μg/mL", "result": "non-significantly lowered"}, {"measurement": "cumulative duration of PTZ-induced epileptiform events", "setting": "[2]; 12.5 μg/mL, p≤0.05", "result": "significantly lowered"}, {"measurement": "normal swimming behavior in comparison to VHC-treated larvae", "setting": "[3]; 3.13, 6.25 and 12.5 μg/mL, compound+VHC, zebrafish EKP seizure model", "result": "significantly lowered"}, {"measurement": "EKP-induced seizure behavior", "setting": "[3]; all concentrations tested (0.78-12.5 μg/mL), 2 hours incubation, 30 min recording (FIG. 7B)", "result": "significantly lowered"}, {"measurement": "cumulative duration of EKP-induced epileptiform events", "setting": "[4]", "result": "significantly lowered"}, {"measurement": "lowering of the percentage of larvae with EKP-induced epileptiform activity", "setting": "[4]", "result": 40, "unit": "%"}, {"measurement": "number of EKP-induced epileptiform events", "setting": "[4]", "result": "significantly lowered"}, {"measurement": "mean seizure duration", "setting": "[5]; 5 mg/kg i.p., not significant", "result": 21, "unit": "s"}, {"measurement": "mean seizure duration", "setting": "[5]; 10 mg/kg i.p., p<0.05", "result": 12.5, "unit": "s"}, {"measurement": "mean seizure duration", "setting": "[5]; 20 mg/kg i.p., p<0.01", "result": 15, "unit": "s"}, {"measurement": "mean seizure duration", "setting": "[5]; 40 mg/kg i.p., p<0.05", "result": 15, "unit": "s"}]}
{"smiles": "C=CC(C)(C)c1nc[nH]c1/C=C1\\NC(=O)C(Cc2ccccc2)NC1=O", "note": "(stereo not drawn) [halimide]", "values": [{"measurement": "maximum tolerated concentration (MTC)", "setting": "zebrafish larvae", "result": 200, "unit": "µg/mL"}, {"measurement": "PTZ-induced seizure behavior", "setting": "[1]; halimide at its MTC, 30 min recording period, p≤0.05", "result": "significantly lowered"}, {"measurement": "cumulative duration of PTZ-induced epileptiform events", "setting": "[2]; MTC (200 μg/mL), p≤0.001", "result": "significantly lowered"}, {"measurement": "lowering of the percentage of larvae with PTZ-induced epileptiform activity", "setting": "[2]; MTC (200 μg/mL), p≤0.001", "result": "~60", "unit": "%"}, {"measurement": "number of PTZ-induced epileptiform events", "setting": "[2]; MTC (200 μg/mL), p≤0.001", "result": "significantly lowered"}]}
